One molecule from US5639950A, “Nucleotide sequence encoding for bifunctional enzyme for proline production” (The Ohio State University Research Foundation, priority 1994, dated 1997) can be followed below.

In assay [1] the target is mutant E. coli gamma-GK encoded by the proB74 allele (Escherichia coli, UniProt P0A7B5, D107N). Conditions: proB74 mutant form of the bacterial enzyme. As for the experimental part: (§1) FIG. 3 is a graph illustrating feedback inhibition of delta^1 -pyrroline-5-carboxylate synthetase by proline. Ammonium sulfate-fractionated extracts from E. coli CSH26 (.circle-solid.), E. coli CSH26 harboring PVAB2 (.smallcircle.), the proB74 allele (.orgate.), and the wild-type proB allele (.quadrature.) were assayed for gamma-GK activity by the method of Hayzer and Leisinger, J. Gen. Microbiol., 118, 1980, pp. 287-293.
Chain of mutant E. coli gamma-GK encoded by the proB74 allele (P0A7B5 whole entry D107N): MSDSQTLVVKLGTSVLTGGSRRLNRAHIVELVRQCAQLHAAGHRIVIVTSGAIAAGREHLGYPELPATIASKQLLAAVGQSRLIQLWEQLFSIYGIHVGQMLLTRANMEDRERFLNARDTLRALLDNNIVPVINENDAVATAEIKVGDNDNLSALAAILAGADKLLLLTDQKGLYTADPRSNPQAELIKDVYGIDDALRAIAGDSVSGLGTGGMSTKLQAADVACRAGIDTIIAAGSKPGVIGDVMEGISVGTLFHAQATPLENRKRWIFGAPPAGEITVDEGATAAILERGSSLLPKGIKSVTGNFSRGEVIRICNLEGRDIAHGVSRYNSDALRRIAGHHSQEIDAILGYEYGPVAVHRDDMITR
(§2) P5CS has GSA dehydrogenase and gamma-GK activities, and the gamma-GK activity is feedback inhibited by proline. To confirm that the presently claimed sequence, PVAB2 of FIGS. 1A, 1B, 1C and 1D, encoded P5CS activity, ammonium sulfate-fractionated extracts of E. coli CSH26 and CSH26 harboring PVAB2 were assayed for GSA dehydrogenase-dependent gamma-GK enzyme activity. […] Because proline production is regulated by end-product inhibition of gamma-GK in bacteria, the plant enzyme P5CS was similarly subjected to feed-back control testing. […] The mutation responsible for the resistance to end-product inhibition of the gamma-GK in the proB 74 allele involves a substitution of an A for a G nucleotide, resulting in a change from aspartic acid to asparagine residue at position 107.
E. coli CSH26 cells and CSH26 harboring different plasmids were grown aerobically at 37° C. for about 16 hours. […]

Assay [2] has as its system wild-type E. coli gamma-GK. Briefly: biochemical. The note with it: more sensitive than Vigna enzyme. How it is done:
as §1, §2
(§3) E. coli CSH26 cells and CSH26 harboring different plasmids were grown aerobically at 37° C. for about 16 hours. The cells were harvested by centrifugation at 4,000× g for 10 minutes, and the cell paste resulting was suspended in 4 ml of buffer A (50 mM Tris-Hcl, 1 mM dithiothreitol) at […] Following sonication, (Benson Sonifier, Type 450) at 50 watts, the slurry was centrifuged at 4,000× g for 10 minutes and the supernatant fractionated by ammonium sulfate precipitation. For E. coli CSH26 containing PVAB2, the fraction precipitating between 0 and 30% saturation of ammonium sulfate was used for enzyme assay.

Assay [3] concerns the target Vigna aconitifolia delta1-pyrroline-5-carboxylate synthetase (P5CS) (Vigna aconitifolia, UniProt P32296). Briefly: biochemical. As for the experimental part:
as §1, §2, §3

Assay [4] deals with T1, wild-type E. coli gamma-GK (Escherichia coli, UniProt P0A7B5).
T1 construct: made in house; host or cells: E. coli CSH26 harboring the wild-type proB allele (plasmid pDU1 from A. Dandekar); ammonium sulfate fraction 40-60%
T1 sequence (P0A7B5 whole entry): as the sequence (P0A7B5 whole entry D107N) above, with N107D counted along it
Briefly: biochemical. As for the experimental part: as §1, §2, §3

Chain of Vigna aconitifolia delta1-pyrroline-5-carboxylate synthetase (P5CS) (P32296 whole entry): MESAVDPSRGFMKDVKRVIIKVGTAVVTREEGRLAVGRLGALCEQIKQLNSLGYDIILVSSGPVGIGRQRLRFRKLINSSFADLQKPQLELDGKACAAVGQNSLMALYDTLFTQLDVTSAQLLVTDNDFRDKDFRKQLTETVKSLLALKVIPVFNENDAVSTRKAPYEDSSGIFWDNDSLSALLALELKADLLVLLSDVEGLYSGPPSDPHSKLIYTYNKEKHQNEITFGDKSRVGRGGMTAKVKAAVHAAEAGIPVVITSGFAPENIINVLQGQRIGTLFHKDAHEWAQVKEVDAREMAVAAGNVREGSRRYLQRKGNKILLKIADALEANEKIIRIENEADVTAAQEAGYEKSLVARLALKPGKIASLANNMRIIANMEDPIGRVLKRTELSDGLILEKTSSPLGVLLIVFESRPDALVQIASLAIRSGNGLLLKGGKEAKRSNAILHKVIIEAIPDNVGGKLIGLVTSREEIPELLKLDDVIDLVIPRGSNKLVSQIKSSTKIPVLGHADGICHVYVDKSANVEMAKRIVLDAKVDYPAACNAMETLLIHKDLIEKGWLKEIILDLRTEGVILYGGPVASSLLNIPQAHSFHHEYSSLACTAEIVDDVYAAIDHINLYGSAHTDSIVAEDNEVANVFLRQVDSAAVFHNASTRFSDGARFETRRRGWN

For `O=C(O)[C@@H]1CCCN1` [proline], in assay [1], the “sensitivity to end product (proline) inhibition, fold less sensitive” value is “approximately 200 fold”. In addition, in assay [2], the “sensitivity to proline of wild-type E. coli gamma-GK relative to the Vigna enzyme” value was determined as 30 times. For the same molecule, the IC50 in assay [3] was found to be 6 mM; in assay [4] it was 0.2 mM.

What is called IC50 is the concentration that inhibits the measured activity by half. High values mean lower potency, low ones higher potency.
